Columns and labels:
[1] = test system: cultured rat embryonic cortical neurons; test: Neuritogenesis assay (Sholl analysis, DIV6); format: cell-based; conditions: 1 µM, DIV6, mean ± SEM
[2] = test system: panel of 55 central nervous system targets; test: Competitive radioligand binding selectivity panel (Eurofins Discovery)
Protocol: Figure S3. Selectivity profiles for (+)-JRT and (–)-JRT across 55 central nervous system targets. The effects of (+)- JRT (10 μM) and (–)-JRT (10 μM) on a wide range of targets were assessed by Eurofins Discovery. Data represent % inhibition of the binding of a radioactively labeled ligand specific for each target. Assays were conducted in duplicate and the results were averaged.
Data Analysis and Statistics. Treatments were randomized, and data were analyzed by experimenters blinded to treatment conditions. Statistical analyses were performed using GraphPad Prism (version 10.0.3) unless noted otherwise.
All comparisons were planned prior to performing each experiment. No data were excluded. Data are represented as mean ± SEM, unless noted otherwise, with asterisks indicating *p < 0.05, **p < 0.01, ***p < 0.001, and ****p < 0.0001. Details of all statistical tests are shown in SI Appendix, Table S1. […]
Both (+)-JRT and (–)-
JRT were synthesized in-house and judged to be analytically pure based on NMR and LC-MS data. For cell culture experiments, VEH = 0.1% (agonist studies) or 0.2% (antagonist studies) molecular biology grade dimethyl sulfoxide (Sigma-Aldrich). For in vivo experiments, compounds were administered i.p. at 5 mL/kg using 0.9% saline as the vehicle, unless noted otherwise. VEH = USP grade saline (0.9%). Stock solutions for behavioral assays were prepared fresh before use.
Fumarate salts of (+)-JRT and (–)-JRT were used for all biological studies unless noted otherwise.
Animals. All experimental procedures involving animals were approved by the Institutional Animal Care and Use Committee (IACUC) at the University of California, Davis, the Salk Institute, Weill Cornell Medicine, McLean Hospital (Harvard Medical School), or the Contract Research Organization (CRO) where the study was performed. All procedures involving animals adhered to principles described in the National Institutes of Health Guide for the Care and Use of Laboratory Animals.
Animals were either obtained from Jackson Laboratory (Sacramento, C.A.) or bred in-house unless noted otherwise. Power analyses were conducted to ensure appropriate sample sizes for all experiments involving animals. Animals were housed 2–5 animals of the same sex per cage on a 12h light/dark cycle and were given ad libitum access to food and water unless noted otherwise. The University of California, Davis, the Salk Institute, and Weill Cornell Medicine are accredited by the Association for Assessment and Accreditation of Laboratory Animal Care International (AAALAC). Whenever possible, both sexes were utilized. However, a single sex was utilized in some cases when 1) a contract research organization had only […]
Radioligand Binding Selectivity Panel. Competitive radioligand binding studies for (+)-JRT (10 μM) and (–)-JRT (10 μM) were performed across a panel of receptors at Eurofins Discovery. Experiments were performed using the free bases of […]
radioligand and source of receptor (5,6,7,8,9,10,11,12).
Radioligand Binding Assays (5-HT2AR and 5-HT2CR). The 5-HT2AR and 5-HT2CR competitive radioligand binding assays were performed at Epics Therapeutics S.A. (Belgium, FAST-0505B) using conventional methods. Experiments were performed using the free bases of (+)-JRT and (–)-JRT. […] Nonspecific binding was determined by co-incubation with 200-fold excess of cold competitor DOI. […]

male C57BL/6J mice = test: PCP-induced locomotion (Psychogenics); format: in vivo; conditions: VEH + PCP 5 mg/kg IP; VEH + VEH 11101 ± 1709
Protocol: (§1) IP) can block AMPH-induced hyperlocomotion in female, but not male, mice. (B) Pretreatment with (+)-JRT (1 mg/kg, IP) […]
(§2) AMPH = (+)-amphetamine; PCP = phencyclidine; VEH = vehicle; ns = not significant. *p < 0.05, **p < 0.01, ***p < 0.001, ****p < 0.0001, as compared to the comparator(s) indicated by a horizontal bar. See Methods and SI Appendix, Table S1 for full details on statistics.
(1 picture or pasted object on this page, not shown here) […]
PCP-Induced Locomotion. The PCP-induced hyperlocomotion assay was performed by Psychogenics using male C57BL/6J mice that were approximately 8 weeks old at the time of the experiments. The experiment was performed during the animal’s light cycle phase. On the day of testing, animals were acclimated to the experimental room for at least 1 h prior to treatment. Animals were then administered with VEH or JRT (IP, 10 mL/kg) and placed in holding cages for 30 min, after which mice were placed in the open field chambers (27.3 x 27.3 x 30.3; Med Associates Inc., St Albans, VT). Baseline activity was recorded for 30 min. Next, mice received either PCP (5 mg/kg, IP, 10 ml/kg) or VEH and were returned to the open field chambers for a 60 min test session. Locomotion was assessed using consecutive infrared beam breaks. At the end of each session, the chambers were thoroughly cleaned. […]
(§3) Reads were aligned to the GRCm39 genome assembly using STAR, processed with Picard, and counted with the Subread software. Transcript inclusion criteria consisted of a minimum raw expression level of 25 transcripts in a minimum of 4 samples. Surrogate variable analysis was conducted with the sva package 2023 release v3.5.0 in R and normalization and differential expression analysis was performed with DESeq2 v4.3 with a baseMean threshold of 10. Heatmaps were created with the pheatmap v1.0.12 with sample-wise z-scores plotted and both row and column grouping allowed using pearson's distances and ward.D for clustering. Gene-wise selection criteria for heatmaps were a baseMean expression threshold of 50 to focus on robustly expressed genes, p value < 0.05, and presence in the top 250 genes sorted by absolute value of log2FC. Additionally, z score was capped at 2 for visualization purposes. Schizophrenia gene sets were extracted from a recent TWAS study (30).
(§4) For Figure S8G, the TWAS set was filtered for FDR < 0.01. Permutation testing was conducted to quantify the overlap of top genes from schizophrenia TWAS with the perm_test function from the bulkWarehouse package 2023 release v1.2.7.
(§5) Briefly, the intersection of top differentially expressed genes and top TWAS genes is compared to an empirical distribution created by calculating the intersection with our top DEGs when randomly sampling candidate genes from our dataset equal to the size of the TWAS sample. […]

male Long Evans rats = test: Probabilistic reward task (PRT) under chronic cold-water stress; format: in vivo; conditions: KET 10 mg/kg IP
male Sprague Dawley rats = test: Rat forced swim test (FST); format: in vivo; conditions: 10mg/kg IP, 24 h after administration
Protocol: as §3, §4
Briefly, the intersection of top differentially expressed genes and top TWAS genes is compared to an empirical distribution created by calculating the intersection with our top DEGs when randomly sampling candidate genes from our dataset equal to the size of the TWAS sample. Selection criteria from the TWAS include an expression level of 25 transcripts in a minimum of 4 samples in our dataset, FDR < 0.01 from the TWAS and top 250 sorted by absolute value of log2FC. Selection criteria from our gene set were an expression level of 25 transcripts in a minimum of 4 samples, p value < 0.1 and top 250 sorted by absolute value of log2FC.
Rat Forced Swim Test (FST). This study was performed by Psychogenics (Paramus, NJ). Male Sprague Dawley rats were purchased from Envigo (Indianapolis, IN), and were 8 weeks old at the time of the experiments. Upon receipt, they were assigned unique identification numbers (tail marked) and group housed in ventilated cages with 3 rats per cage. All animals […]
remained housed in groups of three for the remainder of the study. All rats were acclimated to the colony room for up to one week prior to dosing. During the period of acclimation, rats were examined and handled daily, and weighed to assure adequate health and suitability. The room temperature was maintained between 20 °C and 23 °C with a relative humidity of 30%–70%. Lab Rodent Diet 5001 (W.F. Fisher, Cat # 11015) and water were provided ad libitum. Animals were randomly assigned across treatment groups. All testing was performed during the light phase of the light/dark cycle. Behavioral testing was conducted according to established protocols approved by the IACUC committee and PGI Standard Operation Procedures (SOP). Each forced swim chamber was constructed of clear acrylic (height = 40 cm; diameter = 20.3 cm). Only one rat was placed in the swim chamber at a time for each swim test. The water was changed and the chamber cleaned between each animal. The water depth was 16 cm in the first swim session (pre-test) and 30 cm in the second swim session (test). The water was maintained at 23 °C ± 1 °C for all swim sessions. At the end of each swim test rats were dried with paper towels and returned to the home cage. All animals were carefully monitored to ensure their safety in the swim test and any animal unable to maintain a posture with its nose above water was immediately removed from the water and not used further in the study. Animals were first subjected to a pre-test for 15 min. Immediately after the pre-test, they were administered compounds or VEH via i.p. injection (1 ml/kg). Racemic ketamine hydrochloride (10 mg/kg) was used as a positive control. A salt correction factor of 1.36 was used when preparing formulations of (+)-JRT to ensure that the dose corresponded to that of the free base. […]

C57BL/6J mice = test: Amphetamine-induced locomotion; format: in vivo; conditions: VEH + AMPH 3 mg/kg
Protocol: Figure S11. […] (A) Pretreatment with (+)-JRT (1 mg/kg,
as §1, §2
(1 picture or pasted object on this page, not shown here)
Amphetamine-Induced Locomotion. The amphetamine-induced hyperlocomotion assay was performed using male and female C57BL/6J mice that were approximately 8 weeks old at the time of the experiments. Animals were first placed in the test arena (40 cm x 40 cm) for 15 min to obtain a basal reading of locomotion and habituate them to the testing arena.
Next, animals were administered (+)-JRT (1 mg/kg) or VEH (2.5 mL/kg, i.p) and placed back in the test arena. After 15 min, the animals were administered (+)-amphetamine (3 mg/kg) or VEH (2.5 mL/kg) and placed back in the test arena for 60 minutes. Locomotion during the entire experiment was quantified using ANYmaze Video Tracking System, version 7.07 (Stoelting Co.). The test arena was cleaned thoroughly with 70% ethanol between trials. […]
as §3, §4, §5

CN1CCN(C2=Nc3cc(Cl)ccc3Nc3ccccc32)CC1 [CLZ, clozapine, reference compound]
Area under the curves of the Sholl plots (Figure S8D) ([1]; VEH 1.000 ± 0.05010): 1.045 ± 0.04563 | Total branches (Figure S8C) ([1]; VEH 2.325 ± 0.2641): 3.280 ± 0.2858 | Number of primary dendrites (Figure S8B) ([1]; VEH 6.275 ± 0.2292): 7.620 ± 0.2586

CCN(CC)C(=O)[C@H]1C=C2c3cccc4ccn(c34)C[C@@H]2N(C)C1 [(–)-JRT]
Selectivity across panel of 55 central nervous system targets ([2]; 10 μM, free bases): highly selective for a subset of serotonin receptors | Affinity for dopamine, histamine, or adrenergic receptors ([2]; radioligand binding, unlike LSD): neither of these compounds exhibited affinity

c1ccc(C2(N3CCCCC3)CCCCC2)cc1 [PCP, phencyclidine, reference compound]
Locomotion, infrared beam breaks (Figure 11B) (male C57BL/6J mice): 26552 ± 1179

CNC1(c2ccccc2Cl)CCCCC1=O (centres unmarked) [Ketamine, ketamine, reference compound]
Response bias (log b) (Figure 6G) (male Long Evans rats; Day 2, Day 1 0.120 ± 0.042): 0.330 ± 0.035 | Response bias (log b) (Figure 6G) (male Long Evans rats; Day 3, Day 1 0.120 ± 0.042): 0.304 ± 0.091 | Response bias (log b) (Figure 6G) (male Long Evans rats; Day 11, Day 1 0.120 ± 0.042): 0.266 ± 0.086 | Response bias (log b) (Figure 6G) (male Long Evans rats; Day 1 (stressed, before drug) 0.120 ± 0.042): 0.457 ± 0.070 | Swimming (Figure 6B) (male Sprague Dawley rats; VEH 22.10 ± 1.929): 34.10 ± 1.187 | Immobility (Figure 6B) (male Sprague Dawley rats; VEH 37.20 ± 1.867, of 60 scored behaviors): 25.00 ± 1.265

C[C@H](N)Cc1ccccc1 [AMPH, (+)-amphetamine, reference compound]
Locomotion (Figure 11A Females) (C57BL/6J mice; female mice, VEH + VEH 101.9 ± 15.04): 418.5 ± 32.97 | Locomotion (Figure 11A Males) (C57BL/6J mice; male mice, VEH + VEH 59.80 ± 4.206): 330.5 ± 74.31
